Consider one molecule from patent US9682056B2, “Oleacein for treating or preventing diseases resulting from atherosclerotic plaques” (Warszawski Uniwersytet Medyczny, priority 2012, dated 2017).

Assay [1] concerns interleukin 10 (IL-10) production. The assay can be described thus: IL-10 production by atherosclerotic plaque, ELISA. The assay is classed as cell-based, human. To be noted: IL-10 amount per atherosclerotic plaque mass, % of stimulated control. An excerpt:
The effects of olacein on interleukin 10 (IL-10) production were investigated with the use of the ELISA immunochemical method (R&D system). The IL-10 amounts were converted into the atherosclerotic plaque mass and, subsequently, determined in % compared to the stimulated control.

Assay [2] concerns metalloproteinase-9 (MMP-9) production. Kind of assay: MMP-9 production by LPS-stimulated atherosclerotic plaque from carotid artery, ELISA. The assay is classed as cell-based. To be noted: Homo sapiens; plaques (n=15) from endoartherectomy patients; LPS 1 μg/ml stimulation; 24 hours at 37° C.; average±standard error; read-out: IC50, inhibition of MMP-9 production. The method, then: Atherosclerotic plaques (n=15) were obtained from patients subjected to endoartherectomy. The plaque obtained was divided into two portions, which were then incubated in buffered physiological saline (control), or buffered physiological saline in the presence of oleacein at the concentrations of 5, 10 and 20 μM for 24 hours at a temperature of 37° C. following prior stimulation with a solution of lipopolysaccharide at a concentration of 1 μg/ml. The unstimulated control consisted of physiological saline, in which the plaque was incubated for […]. The effect of oleacein on metalloproteinase-9 (MMP-9) production was determined using immunochemical ELISA (R&D System). The amount of MMP-9 (ng/ml) was calculated per mass of atherosclerotic plaque, and then described in terms of percentage in comparison to the stimulated control.
In general terms: In an ELISA, binding on a coated surface is turned into a signal by an enzyme label.

As for `C/C=C(/C=O)[C@@H](CC=O)CC(=O)OCCc1ccc(O)c(O)c1` [oleacein], the “IL-10 production compared to the stimulated control” value in assay [1] is on record as “about 267.1±61.5%”. In addition, the 50% inhibitory concentration (IC50) in assay [2] turned out to be 9.07 ± 1.2 µM.

Usually IC50 stands for the point on the concentration scale where inhibition reaches its midpoint.
